Reference: patent EP1136503A1, “NOVEL PHYSIOLOGICALLY ACTIVE SUBSTANCE, PROCESS FOR PRODUCING THE SAME AND UTILIZATION THEREOF” (Takeda Chemical Industries, Ltd., priority 1998, dated 2001)
Where no end group is shown, it is not given here.

Tests used:
[1] = Blood pressure of rats under anesthesia; type: in vivo, Male Wistar rats; details: 10 nmols/kg intravenous, 8 rats, average + standard error
Experimental: The activity of the synthetic SENR ligand polypeptides ① and ② (SEQ ID NO:7 and SEQ ID NO:8) in various concentrations, which were synthesized in EXAMPLES 12 and 13, on blood pressure of rats under anesthesia was measured by the following method. Male Wistar rats of 8 to 9 weeks old (purchased from Nippon Crea Co.) were anesthetized with Nembutal injection (Dai-Nippon Pharmaceutical Co., 50 mg/ml sodium pentobarbital, 50 mg/kg i.p.). A catheter (SP-55) for blood pressure measurement connected with a transducer was inserted into the left carotid artery and a catheter (SP-35) for intravenous injection into the left femoral vein. The synthetic ligand was dissolved in physiological saline containing 0.05% BSA, which was cannulated through the left femoral vein in a dose of 1, 10 or 100 nmol/kg. The blood pressure was continuously recorded by means of a polygraph (manufactured by NEC Sanei Co.). […] The hypotensive action was shown by the average blood pressure reduced by administration of SENR ligand to the average blood pressure prior to administration. […]

rat SENR [2] = test: GTPγS binding to rat SENR-expression CHO cell membrane fraction; type: biochemical; details: peptide in various concentrations, 25°C 1 hour
Experimental: The [^35S] -guanosine 5'-(γ-thio)triphosphate binding promoting activity of bovine SENR ligand (SEQ ID NO:21) on SENR-expression CHO cell membrane fraction was measured by the following method. First, preparation of membrane fraction is described. To 1 x 10^8 of CHO/SENR cells was added 10 ml of a homogenate buffer (10 mM NaHCO3, 5 mM EDTA, 0.5 mM PMSF, 1 µg/ml pepstatin, 4 µg/ml E64, 20 µg/ml leupeptin), which was homogenized by using Polytron (12,000 rpm, 1 min.). The cell homogenate was subjected to centrifugation (1,000 g, 15 mins.) to give the supernatant. Next, the supernatant was subjected to ultracentrifugation (Beckman type 30 rotor, 30,000 rpm, 1 hour). The resulting precipitate was used as a rat SENR-expression CHO cell membrane.
The GTPγS binding activity was measured as follows. The rat SENR-expression CHO cell membrane was diluted with a buffer for membrane dilution (50 mM Tris-hydrochloride buffer (pH 7.4), 5 mM MgCl2, 150 mM NaCl, 1 µM GDP) to prepare a cell membrane fraction solution for assay having a protein concentration of 30 µg/ml. […] After washing twice with 1.5 ml of a buffer for filter washing (50 mM Tris-hydrochloride buffer (pH 7.4), 5 mM MgCl2, 1 mM EDTA, 0.1% BSA), radioactivity of the filter was measured using a liquid scintillation counter.

rat SENR [3] = test: cAMP synthesis suppression in rat SENR-expression CHO cells; type: cell-based; details: forskolin
Experimental: A method for the cAMP synthesis suppressing activity of the bovine SENR ligand (SEQ ID NO:21) synthesized in EXAMPLE 14 on rat SENR-expression CHO cells is shown below. The CHO/SENR cells were inoculated on a 24-well plate in 5 × 10^4 cells/well followed by cultivation for 48 hours. The cells were then washed with Hanks' buffer (pH 7.4) containing 0.2 mM 3-isobutyl-methylxanthine, 0.05% BSA and 20 mM HEPES (hereinafter Hanks' buffer (pH 7.4) containing 0.2 mM 3-isobutyl-methylxanthine, 0.05% BSA and 20 mM HEPES is referred to as a reaction buffer). Thereafter, 0.5 ml of the reaction buffer was added to the system, which was kept in the medium for 30 minutes. The reaction buffer was removed and 0.25 ml of a fresh reaction buffer was added to the cells. Then, 0.25 ml of the reaction buffer containing various amounts of bovine SENR ligand and 2 µM forskolin was added to the cells followed by reacting at 37°C for 24 minutes. By adding 100 µl of 20% perchloric acid, the reaction was terminated. The reaction mixture was then allowed to stand on ice for an hour to extract intracellular CAMP. The amount of cAMP in the extract was measured using cAMP EIA kit (Amersham Pharmacia Biotech).

[4] = target: rat SENR (sensory epithelium neuropeptide-like receptor) (rat); test: cell-based or functional assay
human SENR (human) = test: cell-based or functional assay

GPPSECFWKYCV (cysteine pairing not given here) [Bovine SENR ligand, Cys 6th and 11th form intramolecular disulfide bond]
Average blood pressure decreased [1]: 35.7 ± 7.0 mmHg
amount of [^35S]-guanosine 5'-(γ-thio)triphosphate bound to the membrane fraction (rat SENR [2]): dose-dependently increased
amount of intracellular cAMP (rat SENR [3]; increasing peptide concentration): decreased dose dependently
amount of intracellular cAMP (rat SENR [3]; peptide 0.3 nM, 37°C 24 minutes): obviously reduced

bovine SENR ligand (peptide)
cAMP synthesis suppressing activity (forskolin-stimulated; concentration at which an obvious reduction was seen) [4]: 0.3 nM

human SENR ligand (human urotensin II) (peptide)
cAMP synthesis suppressing activity (forskolin-stimulated; concentration at which an obvious reduction was seen) (human SENR (human)): 0.3 nM
